In US20240025905A1, “SALTS OF DIHYDROPYRIMIDINE DERIVATIVES, COMPLEXES AND USES THEREOF IN MEDICINE” (SUNSHINE LAKE PHARMA CO., LTD., priority 2020, published 2024):

Experiments:
[1] = Stability test (high temperature, high humidity and light tests); type: physicochemical
Protocol: High temperature test: An appropriate amount of the test product was added into a flat weighing bottle and spread into a thin layer with thickness ≤5 mm. The bottle was placed at 60° C. or 40° C. for 10 days. Samples were taken at the 5th and 10th days to check the appearance, related substances and purity.
High humidity test: An appropriate amount of the test product was added into a flat weighing bottle and spread into a thin layer with thickness 5 mm. The bottle was placed at 25° C. and a relative humidity of 90%±5% for 10 days. Samples were taken at the 5th and 10th days to check the appearance, related substances and purity. At the same time, the weight of the test product before and after the test were accurately weighed to investigate the moisture absorption and deliquescence performance of the test product. Light test: An appropriate amount of the test product was added into a flat weighing bottle and spread into a thin layer with thickness ≤5 mm. The bottle was opened and placed in a light box (with UV) at the illuminance 4500±500 lx, UV light≥0.7 w/m^2 for 10 days. Samples were taken at the 5th and 10th days to check the appearance, related substances and purity.

[2] = Pharmacokinetic evaluation of experimental animals after oral administration; type: in vivo, Beagle dogs; details: dog
Protocol: Blood samples were taken at 0.25, 0.5, 1, 2, 4, 6, 8 and 24 hours from forelimb vein after the administration, and collected in anticoagulation tube with EDTA-K2. After liquid-liquid extraction, the blood samples were quantitatively analyzed on a triple quadrupole tandem mass spectrometer using multiple reactive ion monitoring (MRM). Pharmacokinetic parameters (AUC0-t and Cmax) were calculated using a noncompartmental method by WinNonLin 6.3 software.

HBV = details: PCT application WO2019076310A1; cited from earlier work

## COC(=O)C1=C(CN2CCN3C(=O)N(c4ccc(CCC(=O)O)cc4F)C[C@@H]3C2)NC(c2nccs2)=N[C@H]1c1ccc(F)cc1Cl [Compound having Formula (I), 3-(4-((S)-7-(((R)-6-(2-chloro-4-fluorophenyl)-5-(methoxycarbonyl)-2-(thiazol-2-yl)-3,6-dihydropyrimidin-4-yl)methyl)-3-oxohexahydroimidazo[1,5-a]pyrazine-2(3H)-yl)-3-fluorophenyl)propionic acid]
[1]; 0 days
  Purity (%): 98.61%
[1]; High humidity (90% RH), 25° C., 5 days
  Purity (%): 98.66%
[1]; High humidity (90% RH), 25° C., 10 days
  Purity (%): 98.75%
[1]; High temperature (60° C.), 5 days
  Purity (%): 95.40%
[1]; High temperature (60° C.), 10 days
  Purity (%): 94.07%
[1]; Light (4500±500 lx, UV light≥0.7 w/m^2), 5 days
  Purity (%): 98.66%
[1]; Light (4500±500 lx, UV light≥0.7 w/m^2), 10 days
  Purity (%): 98.20%
[1]; high temperature (such as 60° C.)
  stability under high temperature (in words): unstable
[2]; blood, beagle dogs, oral via capsules, 10 mg/kg, read-out: AUC0-t
  AUC0-t: 6340 ng·h/mL
[2]; blood, beagle dogs, oral via capsules, 10 mg/kg, read-out: Cmax
  Cmax: 3720 ng/mL
[2]; in vivo
  absorption in the body / in animals (in words): unsatisfactory
HBV
  HBV inhibitory activity (in words): good HBV inhibitory activity
